Data reported in patent US20150166625A1 (Sanofi, priority 2013, published 2015).

System: female diabetic dbdb-mice
Test: Glucose lowering in female diabetic dbdb-mice
Assay type: in vivo, mouse
Settings: 100 μg/kg s.c.
Method: Female diabetic dbdb-mice (BKS.Cg-+Leprdb/+Leprdb/OlaHsd) 10 weeks of age at study start were used. Mice were habituated to feeding and housing conditions for at least 2 weeks. 7 days prior to study start, HbA1c were determined to allocate mice to groups, aiming to spread low, medium and high HbA1c-values and in consequence the group-means (n=8), as equally as possible. On the day of study, food was removed, directly before sampling for baseline glucose assessment (t=0 min). Immediately afterwards, compounds or vehicle (phosphor buffered saline, PBS) were administered subcutaneously, 100 μg/kg, 10 ml/kg. Afterwards, blood samples were drawn by tail tip incision at 15, 30, 60, 90, 120, 150, 180, 240, 360, 480 min and 24 h. Food was re-offered after the 480 min-sampling.
Data were analysed by 2-W-ANOVA on repeated measurements, followed by Dunnett's test as post-hoc assessment, level of significance p<0.05.

Substance	reduction of glucose compared to vehicle control (female db/db mice, from t=60 min until 240 min, p<0.05)	maximal effect, glucose reduction (non-fasted female db/db mice, baseline on average 28 mmol/l) [mmol/L]
HSHGTFTSDLSKQLDEQLAKDFIEWLIAGGPSSGAPPPS-NH2 [SEQ ID NO: 10]	statistical significant reduction of glucose	–
H-Aib-HGTFTSDLSKQLDEQLAKDFIEWLIAGGPSSGAPPPS-NH2 [SEQ ID NO: 9]	–	~12
